Measurements reported in paper PMC6017366, “Characterization of Two VAO-Type Flavoprotein Oxidases from Myceliophthora thermophila” (Molecules : A Journal of Synthetic Chemistry and Natural …, 2018).

Tests used:
[1] = target: T1, MtVAO615 (Thermothelomyces thermophilus, UniProt G2QDQ9); test: X-ray crystal structure ([…] and […] Å); assay type: binding; settings: covalent; bicovalent 6-S-cysteinyl (Cys222) and 8alpha-N1-histidyl (His157) FAD; crystals at pH 7.5 and pH 5.0
T1 construct: gene MYCTH_2305637; mature secreted protein, signal peptide (first 26 residues) removed; homologous expression in M. thermophila C1; N-glycosylated; bicovalent FAD (His157, Cys222); predicted 60 kDa, about 70 kDa on SDS-PAGE
T1 sequence (G2QDQ9 27-574): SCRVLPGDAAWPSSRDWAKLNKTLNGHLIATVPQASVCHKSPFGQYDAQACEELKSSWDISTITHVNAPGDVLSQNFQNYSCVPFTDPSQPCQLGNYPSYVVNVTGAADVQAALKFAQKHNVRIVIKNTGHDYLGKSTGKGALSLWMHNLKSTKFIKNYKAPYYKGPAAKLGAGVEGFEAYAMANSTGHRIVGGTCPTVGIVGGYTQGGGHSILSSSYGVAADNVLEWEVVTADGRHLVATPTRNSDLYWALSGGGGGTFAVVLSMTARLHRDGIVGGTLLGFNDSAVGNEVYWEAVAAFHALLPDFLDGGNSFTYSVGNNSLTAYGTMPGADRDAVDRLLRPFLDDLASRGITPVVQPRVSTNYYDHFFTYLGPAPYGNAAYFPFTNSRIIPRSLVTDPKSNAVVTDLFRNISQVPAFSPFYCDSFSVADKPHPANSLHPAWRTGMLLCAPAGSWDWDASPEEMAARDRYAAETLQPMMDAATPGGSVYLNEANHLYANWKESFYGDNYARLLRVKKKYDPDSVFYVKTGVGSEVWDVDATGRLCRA

[2] = target: T2, MtVAO713 (Thermothelomyces thermophilus, UniProt G2QMS8); test: GC/MS of conversion to 12-ketooleic acid; assay type: biochemical; settings: 5 mM ricinoleic acid, 8 µM enzyme, 16 h; oxygen as electron acceptor; 50 mM Tris/Cl pH 8.0, 10% DMSO, 30 or 37 °C; very poor substrate
T2 construct: gene MYCTH_2309690; mature secreted protein, signal peptide (first 26 residues) removed; homologous expression in M. thermophila C1; monocovalent FAD (His159); N-glycosylated at Asn103 and Asn131; about 60 kDa on SDS-PAGE, 53 kDa by gel filtration
T2 sequence (G2QMS8 entry or part of it): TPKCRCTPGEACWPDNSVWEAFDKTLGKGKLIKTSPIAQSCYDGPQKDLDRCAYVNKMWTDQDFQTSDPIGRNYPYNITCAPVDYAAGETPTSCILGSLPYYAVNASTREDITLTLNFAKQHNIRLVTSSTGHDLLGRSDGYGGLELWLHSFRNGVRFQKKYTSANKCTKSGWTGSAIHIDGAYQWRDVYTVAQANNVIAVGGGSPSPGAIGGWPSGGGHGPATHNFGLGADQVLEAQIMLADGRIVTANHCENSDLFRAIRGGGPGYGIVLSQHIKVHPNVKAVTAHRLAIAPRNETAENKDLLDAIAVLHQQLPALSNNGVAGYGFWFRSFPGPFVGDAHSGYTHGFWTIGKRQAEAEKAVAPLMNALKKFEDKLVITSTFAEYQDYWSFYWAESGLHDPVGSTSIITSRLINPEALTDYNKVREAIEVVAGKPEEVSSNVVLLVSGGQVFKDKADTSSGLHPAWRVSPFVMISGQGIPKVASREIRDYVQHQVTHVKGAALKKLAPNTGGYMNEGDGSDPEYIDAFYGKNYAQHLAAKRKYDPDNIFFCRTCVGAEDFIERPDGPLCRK

Question: Which “X-ray crystal structure (2.0 and 2.2 Å)” value [1] does the source give for Cc1cc2nc3c(=O)[nH]c(=O)nc-3n(C[C@H](O)[C@H](O)[C@H](O)COP(=O)(O)OP(=O)(O)OC[C@H]3O[C@@H](n4cnc5c(N)ncnc54)[C@H](O)[C@@H]3O)c2cc1C [FAD] here?
Answer: Its value is “MtVAO615 harbors a bicovalently linked 6-S-cysteinyl-8α-N1-histidyl FAD”.

Question: For CCCCCC[C@@H](O)C/C=C\CCCCCCCC(=O)O [ricinoleic acid], which “GC/MS of conversion to 12-ketooleic acid” value [2] is on record?
Answer: The value was “The conversion of ricinoleic acid by MtVAO713 was confirmed by GC/MS analysis”.
